The target in one experiment is T1, Wild Type ALK kinase (Homo sapiens, UniProt Q9UM73).
T1 construct: purchased Sino-US Crown Bioscience, Inc. batch number ALK 20110607
The experiment can be described thus: HTRF KinEASE-TK assay, inhibitory activity on wild type ALK kinase. It is filed as biochemical. As to conditions: wild type ALK 1 ng/μl, substrate 1 μM, 30° C. 35 minutes, read-out: Inhibition on ALK kinases (wildtype), IC50. The method, boiled down: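 ALK kinase at 1 ng/μl and substrate at 1 μM were reacted with compound (1% DMSO) in buffer with 5 mM MgCl2 and 1 mM DTT for 35 min at 30 °C. HTRF detection used the 665/615 ratio, normalised to no-compound wells and to 10.4 μM LDK-378 wells. IC50 came from a concentration-response fit.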
For orientation: Time-resolved FRET reads energy transfer from a long-lived donor to a nearby acceptor.

Another experiment addresses T2, L1196M mutant ALK kinase (Homo sapiens, UniProt Q9UM73, L1196M).
T2 construct: purchased Sino-US Crown Bioscience, Inc. batch number ALKm_20110923
The experiment can be described thus: HTRF KinEASE-TK assay, inhibitory activity on L1196M mutant ALK kinase. It is filed as biochemical. As to conditions: L1196M mutant ALK 1 ng/μl, substrate 1 μM, ATP 5 μM, 30° C. 35 minutes, read-out: Inhibition on ALK kinases (L1196M mutant), IC50. In a few lines: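 HTRF TK assay: mutant kinase 1 ng/μl, substrate 1 μM, ATP 5 μM, 5 mM MgCl2, 1 mM DTT, 1% DMSO, 35 min at 30 °C. 665/615 ratio read; inhibition normalised to no-compound and 10.4 μM LDK-378 controls; IC50 from curve fit.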

SMILES strings stand for the structures.

IC50 data for 45 molecules are collected here from US10023593B2, “ALK kinase inhibitor, and preparation method and uses thereof” (BEIJING PEARL BIOTECHNOLOGY LIMITED LIABILITY COMPANY, priority 2014, dated 2018).

A word on the IC50: it is the concentration that inhibits the measured activity by half.

T1 sequence (Q9UM73 19-1620): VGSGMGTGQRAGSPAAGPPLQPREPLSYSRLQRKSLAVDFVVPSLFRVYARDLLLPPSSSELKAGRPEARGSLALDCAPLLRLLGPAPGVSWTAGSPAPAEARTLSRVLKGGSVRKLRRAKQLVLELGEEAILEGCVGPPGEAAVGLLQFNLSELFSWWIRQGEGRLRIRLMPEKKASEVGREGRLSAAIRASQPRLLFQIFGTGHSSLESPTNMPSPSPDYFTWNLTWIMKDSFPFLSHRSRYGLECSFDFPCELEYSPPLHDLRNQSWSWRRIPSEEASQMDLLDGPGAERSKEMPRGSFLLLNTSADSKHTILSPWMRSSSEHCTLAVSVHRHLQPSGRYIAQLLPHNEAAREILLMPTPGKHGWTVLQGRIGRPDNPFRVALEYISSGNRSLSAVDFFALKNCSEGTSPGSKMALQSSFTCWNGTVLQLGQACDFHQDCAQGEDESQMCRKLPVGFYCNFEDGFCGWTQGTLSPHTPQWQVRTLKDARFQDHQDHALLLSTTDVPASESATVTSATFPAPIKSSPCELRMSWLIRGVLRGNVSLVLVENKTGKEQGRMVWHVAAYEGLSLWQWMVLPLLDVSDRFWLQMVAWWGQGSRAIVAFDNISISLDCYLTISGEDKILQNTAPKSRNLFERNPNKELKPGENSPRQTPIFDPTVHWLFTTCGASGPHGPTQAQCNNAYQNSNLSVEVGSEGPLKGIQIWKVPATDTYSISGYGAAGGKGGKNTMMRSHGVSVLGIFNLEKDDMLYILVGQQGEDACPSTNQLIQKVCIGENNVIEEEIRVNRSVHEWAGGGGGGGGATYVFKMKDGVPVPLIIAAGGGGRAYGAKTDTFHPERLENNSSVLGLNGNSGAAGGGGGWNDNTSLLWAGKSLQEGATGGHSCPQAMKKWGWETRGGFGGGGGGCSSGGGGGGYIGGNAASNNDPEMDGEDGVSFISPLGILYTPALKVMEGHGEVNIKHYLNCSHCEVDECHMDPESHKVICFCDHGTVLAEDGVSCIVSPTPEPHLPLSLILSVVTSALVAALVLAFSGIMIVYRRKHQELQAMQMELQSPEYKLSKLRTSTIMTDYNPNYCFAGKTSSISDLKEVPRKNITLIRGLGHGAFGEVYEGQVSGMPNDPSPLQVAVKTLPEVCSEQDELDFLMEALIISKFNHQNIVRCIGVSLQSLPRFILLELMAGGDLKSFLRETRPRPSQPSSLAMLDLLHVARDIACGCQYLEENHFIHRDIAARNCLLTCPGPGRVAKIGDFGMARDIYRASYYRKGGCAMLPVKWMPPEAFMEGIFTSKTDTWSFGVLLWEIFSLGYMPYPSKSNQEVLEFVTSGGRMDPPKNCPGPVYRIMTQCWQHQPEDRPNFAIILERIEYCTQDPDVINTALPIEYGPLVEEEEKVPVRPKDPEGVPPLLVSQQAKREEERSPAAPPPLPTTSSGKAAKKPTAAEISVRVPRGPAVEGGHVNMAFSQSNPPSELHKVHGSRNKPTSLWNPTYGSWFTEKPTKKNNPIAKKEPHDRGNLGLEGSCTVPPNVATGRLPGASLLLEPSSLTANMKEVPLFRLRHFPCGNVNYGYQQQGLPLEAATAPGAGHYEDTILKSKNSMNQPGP
T2 sequence (Q9UM73 19-1620 L1196M): as the sequence (Q9UM73 19-1620) above, with L1178M counted along it

With `Cc1cc(Nc2ncc(Cl)c(Nc3cn(C)nc3S(=O)(=O)C(C)C)n2)c(OC(C)C)cc1C1CNC1` [Final product 4], the IC50 stood at 4 nM at Wild Type ALK kinase and 13 nM at L1196M mutant ALK kinase.
Turning to `Cc1cc(Nc2ncc(Cl)c(Nc3cn(C4CC4)nc3S(=O)(=O)C(C)C)n2)c(OC(C)C)cc1C1CCNCC1` [Final product 5], the values for the IC50 at Wild Type ALK kinase and on L1196M mutant ALK kinase were 6 nM and 12 nM, respectively.
As for `Cc1cc(Nc2ncc(Cl)c(Nc3cn(C)nc3S(=O)(=O)CC(C)C)n2)c(OC(C)C)cc1C1CCNCC1` [Final product 6], the IC50 at Wild Type ALK kinase is 3 nM; at L1196M mutant ALK kinase, 7 nM.
`CCC(C)S(=O)(=O)c1nn(C)cc1Nc1nc(Nc2cc(C)c(C3CCNCC3)cc2OC(C)C)ncc1Cl` (stereo not drawn) [Final product 7]: the values for the IC50 at Wild Type ALK kinase and on L1196M mutant ALK kinase were 8 nM and 12 nM, respectively.
In the same order, the values of `Cc1cc(Nc2ncc(Cl)c(Nc3cn(C)nc3S(=O)(=O)C(C)C)n2)c(OC(CF)CF)cc1C1CCNCC1` [Final product 8] are 9 nM and 10 nM.
For `CC(C)S(=O)(=O)c1nn(C)cc1Nc1nc(Nc2ccc(C3CCNCC3)cc2OC(F)(F)F)ncc1Cl` [Final product 9], the IC50 worked out at 16 nM at Wild Type ALK kinase and 35 nM at L1196M mutant ALK kinase.
Regarding `Cc1cc(Nc2ncc(Cl)c(Nc3cn(C)nc3S(=O)(=O)C(C)C)n2)c(OC(F)(F)F)cc1C1CCNCC1` [Final product 10], the IC50 on Wild Type ALK kinase came out at 7 nM; on L1196M mutant ALK kinase it was 13 nM.
Take `Cc1cc(Nc2ncc(Cl)c(Nc3cn(C)nc3S(=O)(=O)C(C)C)n2)c(C(F)(F)F)cc1C1CCNCC1` [Final product 11]: the IC50 amounted to 22 nM on Wild Type ALK kinase and 39 nM on L1196M mutant ALK kinase.
Consider `Cc1cc(Nc2ncc(Cl)c(Nc3cn(C)nc3S(=O)(=O)C(C)C)n2)c(OCC2CC2)cc1C1CCNCC1` [Final product 12], for which the IC50 at Wild Type ALK kinase is 10 nM; on L1196M mutant ALK kinase it was 17 nM.
The like results for `CC(C)S(=O)(=O)c1nn(C)cc1Nc1nc(Nc2ccc(C3CCNCC3)cc2OC2CC2)ncc1Cl` [Final product 13] were, in that order, 3 nM and 7 nM.
The like results for `CC(C)S(=O)(=O)c1nn(C)cc1Nc1nc(Nc2ccc(C3=CCNCC3)cc2OC2CC2)ncc1Cl` [Final product 14] were, in that order, 4 nM and 6 nM.
With `CC(C)S(=O)(=O)c1nn(C)cc1Nc1nc(Nc2ccc(C3CCNC3)cc2OC2CC2)ncc1Cl` (stereo not drawn) [Final product 15], the IC50 at Wild Type ALK kinase came out at 3 nM; at L1196M mutant ALK kinase, 5 nM.
With `CC(C)S(=O)(=O)c1nn(C2CC2)cc1Nc1nc(Nc2ccc(C3CCNCC3)cc2OC2CC2)ncc1Cl` [Final product 16], the IC50 came out at 4 nM on Wild Type ALK kinase and 7 nM on L1196M mutant ALK kinase.
For `CC(C)CS(=O)(=O)c1nn(C)cc1Nc1nc(Nc2ccc(C3CCNCC3)cc2OC2CC2)ncc1Cl` [Final product 17], the IC50 on Wild Type ALK kinase worked out at 11 nM; at L1196M mutant ALK kinase it was 13 nM.
In the same order, the values of `CC(C)CS(=O)(=O)c1nn(C)cc1Nc1nc(Nc2ccc(C3CCNC3)cc2OC2CC2)ncc1Cl` (stereo not drawn) [Final product 18] are 2 nM and 4 nM.
For `CC(C)S(=O)(=O)c1nn(C)cc1Nc1nc(Nc2cc(F)c(C3CCNC3)cc2OC2CC2)ncc1Cl` (stereo not drawn) [Final product 20], the values for the 50% inhibitory concentration (IC50) on Wild Type ALK kinase and on L1196M mutant ALK kinase were 9 nM and 34 nM, respectively.
The like results for `CC(C)S(=O)(=O)c1nn(C2CC2)cc1Nc1nc(Nc2cc(F)c(C3CCNCC3)cc2OC2CC2)ncc1Cl` [Final product 21] were, in that order, 1 nM and 2 nM.
For the molecule `CC(C)S(=O)(=O)c1nn(C)cc1Nc1nc(Nc2cc(Cl)c(C3CCNCC3)cc2OC2CC2)ncc1Cl` [Final product 22], the IC50 worked out at 2 nM on Wild Type ALK kinase and 12 nM on L1196M mutant ALK kinase.
Take `CC(C)S(=O)(=O)c1nn(C2CC2)cc1Nc1nc(Nc2cc(Cl)c(C3CCNCC3)cc2OC2CC2)ncc1Cl` [Final product 23]: the IC50 on Wild Type ALK kinase came to 4 nM; on L1196M mutant ALK kinase, 8 nM.
With `Cc1cc(Nc2ncc(Cl)c(Nc3cn(C)nc3S(=O)(=O)C(C)C)n2)c(OC2CC2)cc1C1CCNCC1` [Final product 24], the figures for the IC50 at Wild Type ALK kinase and at L1196M mutant ALK kinase were 2 nM and 4 nM, respectively.
`Cc1cc(Nc2ncc(Cl)c(Nc3cn(C)nc3S(=O)(=O)C(C)C)n2)c(OC2CC2)cc1C1=CCNCC1` [Final product 25]: the IC50 is 2 nM on Wild Type ALK kinase and 5 nM on L1196M mutant ALK kinase.
As for `Cc1cc(Nc2ncc(Cl)c(Nc3cn(C)nc3S(=O)(=O)C(C)C)n2)c(OC2CC2)cc1C1CCNC1` (stereo not drawn) [Final product 26], the IC50 at Wild Type ALK kinase is 5 nM; at L1196M mutant ALK kinase it was 6 nM.
On to `Cc1cc(Nc2ncc(Cl)c(Nc3cn(C4CC4)nc3S(=O)(=O)C(C)C)n2)c(OC2CC2)cc1C1CCNCC1` [Final product 27], for which the concentration for half-maximal inhibition (IC50) came out at 3 nM at Wild Type ALK kinase and 6 nM on L1196M mutant ALK kinase.
On to `Cc1cc(Nc2ncc(Cl)c(Nc3cn(C)nc3S(=O)(=O)CC(C)C)n2)c(OC2CC2)cc1C1CCNCC1` [Final product 28], for which the values for the IC50 on Wild Type ALK kinase and on L1196M mutant ALK kinase were 9 nM and 15 nM, respectively.
In the same order, the values of `CC(C)S(=O)(=O)c1nn(C)cc1Nc1nc(Nc2cc(C#N)c(C3CCNCC3)cc2OC2CC2)ncc1Cl` [Final product 29] are 4 nM and 7 nM.
The like results for `CC(C)S(=O)(=O)c1nn(C)cc1Nc1nc(Nc2ccc(C3CCN(C)CC3)cc2OC(F)(F)F)ncc1Cl` [Final product 30] were, in that order, 7 nM and 18 nM.
For `Cc1cc(Nc2ncc(Cl)c(Nc3cn(C)nc3S(=O)(=O)C(C)C)n2)c(OC(F)(F)F)cc1C1CCN(C)CC1` [Final product 31], the results for the half-maximal inhibitory concentration (IC50) on Wild Type ALK kinase and at L1196M mutant ALK kinase were 6 nM and 10 nM, respectively.
In the same order, the values of `Cc1cc(Nc2ncc(Cl)c(Nc3cn(C)nc3S(=O)(=O)C(C)C)n2)c(C(F)(F)F)cc1C1CCN(C)CC1` [Final product 32] are 22 nM and 49 nM.
Consider `Cc1cc(Nc2ncc(Cl)c(Nc3cn(C)nc3S(=O)(=O)C(C)C)n2)c(OC(CF)CF)cc1C1CCN(C)CC1` [Final product 34], for which the values for the IC50 on Wild Type ALK kinase and at L1196M mutant ALK kinase were 10 nM and 23 nM, respectively.
As for `Cc1cc(Nc2ncc(Cl)c(Nc3cn(C)nc3S(=O)(=O)CC(C)C)n2)c(OC(C)C)cc1C1CN(C)C1` [Final product 36], the figures for the IC50 on Wild Type ALK kinase and at L1196M mutant ALK kinase were 8 nM and 15 nM, respectively.
On to `Cc1cc(Nc2ncc(Cl)c(Nc3cn(C)nc3S(=O)(=O)C(C)C)n2)c(OC(C)C)cc1C1CCN(C)C1` (stereo not drawn) [Final product 37], for which the IC50 came out at 7 nM at Wild Type ALK kinase and 4 nM at L1196M mutant ALK kinase.
Turning to `CC(C)S(=O)(=O)c1nn(C2CC2)cc1Nc1nc(Nc2ccc(C3CCN(C)CC3)cc2OC(F)(F)F)ncc1Cl` [Final product 38], the values for the IC50 on Wild Type ALK kinase and on L1196M mutant ALK kinase were 11 nM and 18 nM, respectively.
`Cc1cc(Nc2ncc(Cl)c(Nc3cn(C)nc3S(=O)(=O)C(C)C)n2)c(OCC2CC2)cc1C1CCN(C)CC1` [Final product 39]: the IC50 came out at 15 nM at Wild Type ALK kinase and 48 nM on L1196M mutant ALK kinase.
In the case of `CC(C)S(=O)(=O)c1nn(C)cc1Nc1nc(Nc2ccc(C3CCN(C)C3)cc2OC2CC2)ncc1Cl` (stereo not drawn) [Final product 41], the IC50 came out at 1 nM at Wild Type ALK kinase and 3 nM on L1196M mutant ALK kinase.
In the same order, the values of `CC(C)S(=O)(=O)c1nn(C2CC2)cc1Nc1nc(Nc2ccc(C3CCN(C)CC3)cc2OC2CC2)ncc1Cl` [Final product 42] are 1 nM and 3 nM.
On to `CC(C)S(=O)(=O)c1nn(C)cc1Nc1nc(Nc2cc(F)c(C3CCN(C)C3)cc2OC2CC2)ncc1Cl` (stereo not drawn) [Final product 45], for which the IC50 came out at 4 nM on Wild Type ALK kinase and 10 nM on L1196M mutant ALK kinase.
In the case of `CC(C)S(=O)(=O)c1nn(C2CC2)cc1Nc1nc(Nc2cc(Cl)c(C3CCN(C)CC3)cc2OC2CC2)ncc1Cl` [Final product 48], the IC50 at Wild Type ALK kinase turned out to be 2 nM; at L1196M mutant ALK kinase, 5 nM.
For the molecule `CC(C)S(=O)(=O)c1nn(C)cc1Nc1nc(Nc2cc(C#N)c(C3CCN(C)CC3)cc2OC2CC2)ncc1Cl` [Final product 49], the values for the IC50 at Wild Type ALK kinase and at L1196M mutant ALK kinase were 8 nM and 13 nM, respectively.
As for `Cc1cc(Nc2ncc(Cl)c(Nc3cn(C)nc3S(=O)(=O)C(C)C)n2)c(OC2CC2)cc1C1=CCN(C)CC1` [Final product 50], the IC50 on Wild Type ALK kinase was determined as 5 nM; at L1196M mutant ALK kinase it was 7 nM.
In the case of `Cc1cc(Nc2ncc(Cl)c(Nc3cn(C)nc3S(=O)(=O)C(C)C)n2)c(OC2CC2)cc1C1CCOCC1` [Final product 107], the values for the IC50 at Wild Type ALK kinase and at L1196M mutant ALK kinase were 9 nM and 19 nM, respectively.
For `Cc1cc(Nc2ncc(Cl)c(Nc3cn(C)nc3S(=O)(=O)C(C)C)n2)c(OC2CC2)cc1OC1CCN(C)CC1` [Final product 111], the results for the 50% inhibitory concentration (IC50) on Wild Type ALK kinase and on L1196M mutant ALK kinase were 3 nM and 7 nM, respectively.
Consider `CCN1CCC(c2cc(OC(C)C)c(Nc3ncc(Cl)c(Nc4cn(C)nc4S(=O)(=O)C(C)C)n3)cc2C)CC1` [Final product 118], for which the IC50 on Wild Type ALK kinase came out at 5 nM; at L1196M mutant ALK kinase it was 10 nM.
In the same order, the values of `Cc1cc(Nc2ncc(Cl)c(Nc3cn(C)nc3S(=O)(=O)C(C)C)n2)c(OC(C)C)cc1C1CCN(C(C)C)CC1` [Final product 126] are 7 nM and 12 nM.
As for `Cc1cc(Nc2ncc(Cl)c(Nc3cn(C)nc3S(=O)(=O)CC(C)C)n2)c(OC2CC2)cc1C1CCN(C(C)C)CC1` [Final product 127], the results for the IC50 on Wild Type ALK kinase and at L1196M mutant ALK kinase were 5 nM and 12 nM, respectively.
As to `CCOc1cc(C2CCN(CCO)CC2)c(C)cc1Nc1ncc(Cl)c(Nc2cn(C)nc2S(=O)(=O)C(C)C)n1` [Final product 135], the IC50 was found to be 3 nM at Wild Type ALK kinase and 7 nM on L1196M mutant ALK kinase.
